# Source: patent US7202241B2, “Benzoxazine derivatives and uses thereof” (Roche Palo Alto LLC, priority 2003, dated 2007)
# Molecular target: T1, recombinant human 5-HT6 receptor (Homo sapiens, UniProt P50406)
# T1 construct: expressed in transfected cells; membranes
# Assay: in vitro radioligand binding, [3H]LSD competition in membranes of HEK293 cells expressing 5-HT6
# Details: [3H]LSD (5 nM) displacement, HEK293 cell membranes, 60 min at 37° C., pH 7.4
# Experimental: This example illustrates in vitro radioligand binding studies of compound of formula (I).
# The binding activity of compounds of this invention in vitro was determined as follows. Duplicate determinations of ligand affinity are made by competing for binding of [^3H]LSD in cell membranes derived from HEK293 cells stably expressing recombinant human 5-HT6 receptor. This cell line was prepared by the method described by Monsma et al., Molecular Pharmacology, Vol. 43 pp. 320–327 (1993).
# All determinations were made in assay buffer containing 50 mM Tris-HCl, 10 mM MgSO4, 0.5 mM EDTA, 1 mM ascorbic acid, pH 7.4 at 37° C., in a 250 microliter reaction volume. Assay tubes containing [^3H] LSD (5 nM), competing ligand, and membrane were incubated in a shaking water bath for 60 min. at 37° C., filtered onto Packard GF-B plates (pre-soaked with 0.3% PEI) using a Packard 96 well cell harvester and washed 3 times in ice cold 50 mM Tris-HCl. Bound [^3H] LSD was determined as radioactive counts per minute using Packard TopCount.
# Displacement of [3H]LSD from the binding sites was quantified by fitting concentration-binding data to a 4-parameter logistic equation:
# [formula] where Hill is the Hill slope, [ligand] is the concentration of competing radioligand and IC50 is the concentration of radioligand producing half-maximal specific binding of radioligand. The specific binding window is the difference between the Bmax and the basal parameters.
# T1 sequence (P50406 whole entry): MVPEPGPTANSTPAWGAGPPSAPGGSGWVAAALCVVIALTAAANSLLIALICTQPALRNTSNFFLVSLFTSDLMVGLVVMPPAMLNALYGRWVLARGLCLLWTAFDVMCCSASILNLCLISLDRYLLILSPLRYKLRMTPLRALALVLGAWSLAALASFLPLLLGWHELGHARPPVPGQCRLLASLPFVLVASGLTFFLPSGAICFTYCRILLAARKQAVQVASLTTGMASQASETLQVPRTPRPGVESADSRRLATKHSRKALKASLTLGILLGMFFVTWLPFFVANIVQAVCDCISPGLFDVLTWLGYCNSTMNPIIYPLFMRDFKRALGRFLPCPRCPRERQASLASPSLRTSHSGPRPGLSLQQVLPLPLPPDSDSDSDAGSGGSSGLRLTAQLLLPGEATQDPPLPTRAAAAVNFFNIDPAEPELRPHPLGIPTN
pKi,Compound,Ki
–,"O=S(=O)(c1ccccc1F)N1CCOc2c(N3CCNCC3)cc(F)cc21 [6-Fluoro-4-(2-fluoro-benzenesulfonyl)-8-piperazin-1-yl-3,4-dihydro-2H-benzo[1,4]oxazine]",0.724 nM
–,"Cc1cc(N2CCNCC2)c2c(c1)N(S(=O)(=O)c1cccc(F)c1)CC(C)(C)O2 [4-(3-Fluoro-benzenesulfonyl)-2,2,6-trimethyl-8-piperazinyl-yl-3,4-dihydro-2H-benzo[1,4]oxazine]",0.407 nM
–,"CC1(C)CN(S(=O)(=O)c2ccccc2F)c2cc(F)cc(N3CCNCC3)c2O1 [6-Fluoro-4-(2-fluoro-benzenesulfonyl)-2,2-dimethyl-8-piperazin-1-yl-3,4-dihydro-2H-benzo[1,4]oxazine]",0.209 nM
–,"O=S(=O)(c1ccccc1F)N1CCOc2c(N3CCNCC3)cccc21 [4-(2-Fluoro-benzenesulfonyl)-8-piperazin-1-yl-3,4-dihydro-2H-benzo[1,4]oxazine]",1.26 nM
9.30,"O=S(=O)(c1cccc(Cl)c1)N1CC2(CCC2)Oc2c(N3CCNCC3)cccc21 [4-(3-Chloro-benzenesulfonyl)-2,2-spiro-cyclobutan-8-piperazin-1-yl-3,4-dihydro-2H-benzo[1,4]oxazine]",–
–,"O=S(=O)(c1ccccc1Cl)N1CCOc2c(N3CCNCC3)cccc21 [4-(2-Chloro-benzenesulfonyl)-8-piperazin-1-yl-3,4-dihydro-2H-benzo[1,4]oxazine]",2.14 nM
–,"O=S(=O)(c1cccc(F)c1)N1CCOc2c(N3CCNCC3)cccc21 [4-(3-Fluoro-benzenesulfonyl)-8-piperazin-1-yl-3,4-dihydro-2H-benzo[1,4]oxazine]",11.2 nM
–,"Cc1cc(N2CCNCC2)c2c(c1)N(S(=O)(=O)c1cccc(F)c1)CCO2 [4-(3-Fluoro-benzenesulfonyl)-6-methyl-8-piperazin-1-yl-3,4-dihydro-2H-benzo[1,4]oxazine]",2 nM
–,"CC1(C)CN(S(=O)(=O)c2ccccc2F)c2cccc(N3CCNCC3)c2O1 [4-(2-Fluoro-benzenesulfonyl)-2,2-dimethyl-8-piperazin-1-yl-3,4-dihydro-2H-benzo[1,4]oxazine]",0.209 nM
–,"O=S(=O)(c1cccc(F)c1)N1CC2(CCC2)Oc2c(N3CCNCC3)cccc21 [4-(3-Fluoro-benzenesulfonyl)-2,2-spiro-cyclobutan-8-piperazin-1-yl-3,4-dihydro-2H-benzo[1,4]oxazine]",1.17 nM
